Data reported in ChEMBL document CHEMBL3758143, “5-Iodo-2-arylalkylthio-6-aryl pyrimidin-4(3H)-ones as non-nucleoside anti-HBV agents” (Medchemcomm, 2015).
pEC50: −log10 of the molar value. Each block holds one molecule with its values, some of them ahead of it. Calls of active or inactive are those of the source. No cut-off for these calls is given here.

Assays:
Hepatitis B virus [1] = assay: Antiviral activity against Hepatitis B virus in human HepAD38 cells assessed as inhibition of extracellular viral replication at 10 uM incubated for 2 days followed by 3 day incubation with fresh medium containing compound for 72 hrs by qRT-PCR analysis; format: functional
Hepatitis B virus [2] = assay: Antiviral activity against Hepatitis B virus in human HepAD38 cells assessed as inhibition of extracellular viral replication incubated for 2 days followed by 3 day incubation with fresh medium containing compound for 72 hrs by qRT-PCR analysis; format: functional, organism-based
[3] = Cytotoxicity against human HepAD38 cells after 7 days by MTT assay; format: cell-based
[4] = Selectivity index, ratio of CC50 for human HepAD38 cells to EC50 for Hepatitis B virus; format: toxicity, cell-based; settings: read-out: Ratio CC50/EC50
Hepatitis B virus [5] = assay: Antiviral activity against Hepatitis B virus in human HuH7 cells assessed as reduction in HBeAg secretion incubated for 2 days followed by 3 day incubation with fresh medium containing compound for 7 days by time-resolved fluoro-immunoassay; format: functional, organism-based; settings: Huh-7
Hepatitis B virus [6] = assay: Antiviral activity against Hepatitis B virus in human HuH7 cells assessed as inhibition of intracellular viral replication at 2.5 and 25 uM after 48 hrs by qRT-PCR analysis; format: functional, organism-based; settings: Huh-7
Hepatitis B virus [7] = assay: Effect on transcription level in Hepatitis B virus assessed as pgRNA level in human HuH7 cells after 48 hrs by qRT-PCR analysis; format: functional, organism-based; settings: Huh-7
Hepatitis B virus [8] = assay: Antiviral activity against Hepatitis B virus in human HuH7 cells assessed as reduction in HBsAg secretion at 25 uM incubated for 2 days followed by 3 day incubation with fresh medium containing compound for 7 days by time-resolved fluoro-immunoassay; format: functional, organism-based; settings: Huh-7
Hepatitis B virus [9] = assay: Antiviral activity against Hepatitis B virus in human HuH7 cells assessed as reduction in HBeAg secretion at 25 uM incubated for 2 days followed by 3 day incubation with fresh medium containing compound for 7 days by time-resolved fluoro-immunoassay; format: functional, organism-based; settings: Huh-7

Compound: Cc1cc(C)cc(Cc2nc(SCc3ccc([N+](=O)[O-])cc3)[nH]c(=O)c2I)c1
inhibition at 10 µM (Hepatitis B virus [1]): 25%

Compound: O=c1[nH]c(SCc2ccc(I)cc2)nc(Cn2nnc3ccccc32)c1I
inhibition at 10 µM (Hepatitis B virus [1]): 34%

Compound: O=c1[nH]c(SCCOc2ccc([N+](=O)[O-])cc2)nc(Cc2cc(F)cc(F)c2)c1I
inhibition at 10 µM (Hepatitis B virus [1]): 9%

pEC50 (Hepatitis B virus [2]): 4.92
Compound: COc1cc(CSc2nc(Cn3nnc4ccccc43)c(I)c(=O)[nH]2)cc(OC)c1
inhibition at 10 µM (Hepatitis B virus [1]): 59% | CC50 at 168 h [3]: 146 µM | selectivity ratio [4]: 12

Compound: O=c1[nH]c(SCc2ccc(C(F)(F)F)cc2)nc(Cn2nnc3ccccc32)c1I
inhibition (Hepatitis B virus [1]): inactive

Compound: COc1cccc(CSc2nc(Cc3ccc(OC)c(OC)c3)c(I)c(=O)[nH]2)c1
inhibition (Hepatitis B virus [1]): inactive

pEC50 (Hepatitis B virus [2]): 6.42
Compound: COc1ccc(Cc2nc(SCc3ccc([N+](=O)[O-])cc3)[nH]c(=O)c2I)cc1OC
inhibition at 10 µM (Hepatitis B virus [1]): 81% | CC50 at 168 h [3]: 124 µM | selectivity ratio [4]: 330 | Activity (Hepatitis B virus [5]): Dose-dependent effect | Activity (Hepatitis B virus [6]): Active | Activity (Hepatitis B virus [7]): inactive | Activity (Hepatitis B virus [8]): Active | Activity (Hepatitis B virus [9]): Active

Compound: Nc1ccn([C@H]2CS[C@@H](CO)O2)c(=O)n1
inhibition at 10 µM (Hepatitis B virus [1]): 88% | pEC50 (Hepatitis B virus [2]): 6.14 | CC50 at 168 h [3]: > 100 µM | selectivity ratio [4]: > 137

pEC50 (Hepatitis B virus [2]): 6.33
Compound: O=c1[nH]c(SCCOc2ccc([N+](=O)[O-])cc2)nc(Cn2nnc3ccccc32)c1I
inhibition at 10 µM (Hepatitis B virus [1]): 74% | CC50 at 168 h [3]: 52 µM | selectivity ratio [4]: 111 | Activity (Hepatitis B virus [5]): Dose-dependent effect | Activity (Hepatitis B virus [6]): Active | Activity (Hepatitis B virus [7]): inactive | Activity (Hepatitis B virus [8]): Active | Activity (Hepatitis B virus [9]): Active

Compound: COc1ccc(Cc2nc(SCc3ccc(I)cc3)[nH]c(=O)c2I)cc1OC
inhibition at 10 µM (Hepatitis B virus [1]): 17%

pEC50 (Hepatitis B virus [2]): 5.32
Compound: COc1ccc(Cc2nc(SCc3ccc(C#N)cc3)[nH]c(=O)c2I)cc1OC
inhibition at 10 µM (Hepatitis B virus [1]): 67% | CC50 at 168 h [3]: 92 µM | selectivity ratio [4]: 19

Compound: COc1ccc(Cc2nc(SCc3ccccc3[N+](=O)[O-])[nH]c(=O)c2I)cc1OC
inhibition at 10 µM (Hepatitis B virus [1]): 62%

Compound: N#Cc1ccc(CSc2nc(Cc3cc(F)cc(F)c3)c(I)c(=O)[nH]2)cc1
inhibition at 10 µM (Hepatitis B virus [1]): 14%

Compound: COc1ccc(Cc2nc(SCCOc3ccc(C)cc3)[nH]c(=O)c2I)cc1OC
inhibition at 10 µM (Hepatitis B virus [1]): 49%

Compound: O=c1[nH]c(SCCOc2ccc(Br)cc2)nc(Cn2nnc3ccccc32)c1I
inhibition at 10 µM (Hepatitis B virus [1]): 31%

Compound: Cc1cc(C)cc(Cc2nc(SCCOc3ccc([N+](=O)[O-])cc3)[nH]c(=O)c2I)c1
inhibition at 10 µM (Hepatitis B virus [1]): 20%

Compound: N#Cc1ccc(CSc2nc(Cc3ccccc3)c(I)c(=O)[nH]2)cc1
inhibition at 10 µM (Hepatitis B virus [1]): 63%

Compound: Cc1ccc(OCCSc2nc(Cn3nnc4ccccc43)c(I)c(=O)[nH]2)cc1
inhibition at 10 µM (Hepatitis B virus [1]): 35%

pEC50 (Hepatitis B virus [2]): 4.39
Compound: COc1ccc(Cc2nc(SC3CCCCCC3)[nH]c(=O)c2I)cc1OC
inhibition at 10 µM (Hepatitis B virus [1]): 31% | CC50 at 168 h [3]: 98 µM | selectivity ratio [4]: 2.4

Compound: COc1ccc(Cc2nc(SCc3ccc(C(F)(F)F)cc3)[nH]c(=O)c2I)cc1OC
inhibition at 10 µM (Hepatitis B virus [1]): 54%

Compound: O=c1[nH]c(SCCOc2ccc([N+](=O)[O-])cc2)nc(Cc2ccccc2)c1I
inhibition at 10 µM (Hepatitis B virus [1]): 13%

Compound: COc1ccc(Cc2nc(SCCOc3ccc(Br)cc3)[nH]c(=O)c2I)cc1OC
inhibition (Hepatitis B virus [1]): inactive

Compound: O=c1[nH]c(SCc2ccc([N+](=O)[O-])cc2)nc(Cc2cc(F)cc(F)c2)c1I
inhibition at 10 µM (Hepatitis B virus [1]): 47%

Compound: COc1cc(CSc2nc(Cc3ccc(OC)c(OC)c3)c(I)c(=O)[nH]2)cc(OC)c1
inhibition at 10 µM (Hepatitis B virus [1]): 41%

Compound: Cc1cc(C)cc(Cc2nc(SCc3ccc(C#N)cc3)[nH]c(=O)c2I)c1
inhibition at 10 µM (Hepatitis B virus [1]): 33%

pEC50 (Hepatitis B virus [2]): 5.37
Compound: COc1ccc(Cc2nc(SCc3cccc(Cl)c3)[nH]c(=O)c2I)cc1OC
inhibition at 10 µM (Hepatitis B virus [1]): 65% | CC50 at 168 h [3]: 119 µM | selectivity ratio [4]: 27.8

Compound: O=c1[nH]c(SCc2ccc([N+](=O)[O-])cc2)nc(Cn2nnc3ccccc32)c1I
inhibition at 10 µM (Hepatitis B virus [1]): 49%

Compound: COc1ccc(Cc2nc(SC3C=CCCC3)[nH]c(=O)c2I)cc1OC (configuration not stated)
inhibition at 10 µM (Hepatitis B virus [1]): 52%

Compound: O=c1[nH]c(SCc2ccc([N+](=O)[O-])cc2)nc(Cc2ccccc2)c1I
inhibition (Hepatitis B virus [1]): inactive

Compound: N#Cc1ccc(CSc2nc(Cn3nnc4ccccc43)c(I)c(=O)[nH]2)cc1
inhibition at 10 µM (Hepatitis B virus [1]): 27%

Compound: COc1ccc(Cc2nc(SCCOc3ccc([N+](=O)[O-])cc3)[nH]c(=O)c2I)cc1OC
inhibition at 10 µM (Hepatitis B virus [1]): 6%
